Key:
Assay in all cases: Kinase selectivity profile assay
Type in all cases: biochemical
[1] = molecular target: T1, PKCepsilon (Homo sapiens, UniProt Q02156); settings: 500 nM; relative to DMSO; read-out: Residual enzymatic activity
T1 construct: purchased Reaction Biology Corporation
Procedure, shortened: (§1)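 Radiometric kinase assay run by a standard protocol. Unbound phosphate was removed by washing filters in phosphoric acid, and product radioactivity gave percent remaining kinase activity versus DMSO vehicle reactions. Run in duplicate.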

[2] = molecular target: T2, IRAK1 (Homo sapiens, UniProt P51617); settings: 500 nM; relative to DMSO; read-out: Residual enzymatic activity
T2 construct: purchased Reaction Biology Corporation
Procedure, shortened: as §1

[3] = molecular target: T3, ROCK1 (Homo sapiens, UniProt Q13464); settings: 500 nM; relative to DMSO; read-out: Residual enzymatic activity
T3 construct: purchased Reaction Biology Corporation
Procedure, shortened: as §1

[4] = molecular target: T4, VRK1 (Homo sapiens, UniProt Q99986); settings: 500 nM; relative to DMSO; read-out: Residual enzymatic activity
T4 construct: purchased Reaction Biology Corporation
Procedure, shortened: as §1

[5] = molecular target: T5, PIM1 (Homo sapiens, UniProt P11309); settings: 500 nM; relative to DMSO; read-out: Residual enzymatic activity
T5 construct: purchased Reaction Biology Corporation
Procedure, shortened: as §1

[6] = molecular target: T6, ERK2/MAPK1 (Homo sapiens, UniProt P28482); settings: 500 nM; relative to DMSO; read-out: Residual enzymatic activity
T6 construct: purchased Reaction Biology Corporation
Procedure, shortened: as §1

[7] = molecular target: T7, IRAK4 (Homo sapiens, UniProt Q9NWZ3); settings: 500 nM; relative to DMSO; read-out: Residual enzymatic activity
T7 construct: purchased Reaction Biology Corporation
Procedure, shortened: as §1

[8] = molecular target: T8, TRKB (Homo sapiens, UniProt Q16620); settings: 500 nM; relative to DMSO; read-out: Residual enzymatic activity
T8 construct: purchased Reaction Biology Corporation
Procedure, shortened: as §1

[9] = molecular target: T9, MEKK3 (Homo sapiens, UniProt Q99759); settings: 500 nM; relative to DMSO; read-out: Residual enzymatic activity
T9 construct: purchased Reaction Biology Corporation
Procedure, shortened: as §1

[10] = molecular target: T10, ERK7/MAPK15 (Homo sapiens, UniProt Q8TD08); settings: 500 nM; relative to DMSO; read-out: Residual enzymatic activity
T10 construct: purchased Reaction Biology Corporation
Procedure, shortened: as §1

[11] = molecular target: T11, TTBK2 (Homo sapiens, UniProt Q6IQ55); settings: 500 nM; relative to DMSO; read-out: Residual enzymatic activity
T11 construct: purchased Reaction Biology Corporation
Procedure, shortened: as §1

[12] = molecular target: T12, PKA (Homo sapiens, UniProt P17612); settings: 500 nM, relative to DMSO
T12 construct: purchased Reaction Biology Corporation
Procedure, shortened: as §1

[13] = molecular target: T13, PKCa (Homo sapiens, UniProt P17252); settings: 500 nM; relative to DMSO; read-out: Residual enzymatic activity
T13 construct: purchased Reaction Biology Corporation
Procedure, shortened: as §1

[14] = molecular target: T14, GRK6 (Homo sapiens, UniProt P43250); settings: 500 nM; relative to DMSO; read-out: Residual enzymatic activity
T14 construct: purchased Reaction Biology Corporation
Procedure, shortened: as §1

[15] = molecular target: T15, CDK2/Cyclin A1 (Homo sapiens, UniProt P24941); settings: 500 nM; relative to DMSO; read-out: Residual enzymatic activity
T15 construct: purchased Reaction Biology Corporation
Procedure, shortened: as §1

[16] = molecular target: T16, GRK5 (Homo sapiens, UniProt P34947); settings: 500 nM; relative to DMSO; read-out: Residual enzymatic activity
T16 construct: purchased Reaction Biology Corporation
Procedure, shortened: as §1

[17] = molecular target: T17, HIPK3 (Homo sapiens, UniProt Q9H422); settings: 500 nM; relative to DMSO; read-out: Residual enzymatic activity
T17 construct: purchased Reaction Biology Corporation
Procedure, shortened: as §1

[18] = molecular target: T18, PRKX (Homo sapiens, UniProt P51817); settings: 500 nM; relative to DMSO; read-out: Residual enzymatic activity
T18 construct: purchased Reaction Biology Corporation
Procedure, shortened: as §1

[19] = molecular target: T19, AKT2 (Homo sapiens, UniProt P31751); settings: 500 nM; relative to DMSO; read-out: Residual enzymatic activity
T19 construct: purchased Reaction Biology Corporation
Procedure, shortened: as §1

[20] = molecular target: T20, DLK/MAP3K12 (Homo sapiens, UniProt Q12852); settings: 500 nM; relative to DMSO; read-out: Residual enzymatic activity
T20 construct: purchased Reaction Biology Corporation
Procedure, shortened: as §1

[21] = molecular target: T21, MAPKAPK2 (Homo sapiens, UniProt P49137); settings: 500 nM, relative to DMSO
T21 construct: purchased Reaction Biology Corporation
Procedure, shortened: as §1

[22] = molecular target: T22, HGK/MAP4K4 (Homo sapiens, UniProt O95819); settings: 500 nM; relative to DMSO; read-out: Residual enzymatic activity
T22 construct: purchased Reaction Biology Corporation
Procedure, shortened: as §1

[23] = molecular target: T23, FGFR4 (Homo sapiens, UniProt P22455); settings: 500 nM; relative to DMSO
T23 construct: purchased Reaction Biology Corporation
Procedure, shortened: as §1

[24] = molecular target: T24, VRK2 (Homo sapiens, UniProt Q86Y07); settings: 500 nM; relative to DMSO; read-out: Residual enzymatic activity
T24 construct: purchased Reaction Biology Corporation
Procedure, shortened: as §1

[25] = molecular target: T25, LRRK2 (Homo sapiens, UniProt Q5S007)
T25 construct: purchased Reaction Biology Corporation (assay service)
Procedure, shortened: as §1

[26] = molecular target: T26, DYRK1B (Homo sapiens, UniProt Q9Y463); settings: 500 nM; relative to DMSO; read-out: Residual enzymatic activity
T26 construct: purchased Reaction Biology Corporation
Procedure, shortened: as §1

[27] = molecular target: T27, SNARK/NUAK2 (Homo sapiens, UniProt Q9H093); settings: 500 nM; relative to DMSO; read-out: Residual enzymatic activity
T27 construct: purchased Reaction Biology Corporation
Procedure, shortened: as §1

[28] = molecular target: T28, DDR2 (Homo sapiens, UniProt Q16832); settings: 500 nM; relative to DMSO; read-out: Residual enzymatic activity
T28 construct: purchased Reaction Biology Corporation
Procedure, shortened: as §1

[29] = molecular target: T29, TSSK2 (Homo sapiens, UniProt Q96PF2); settings: 500 nM; relative to DMSO; read-out: Residual enzymatic activity
T29 construct: purchased Reaction Biology Corporation
Procedure, shortened: as §1

[30] = molecular target: T30, MAPKAPK3 (Homo sapiens, UniProt Q16644); settings: 500 nM; relative to DMSO; read-out: Residual enzymatic activity
T30 construct: purchased Reaction Biology Corporation
Procedure, shortened: as §1

[31] = molecular target: T31, PKD2/PRKD2 (Homo sapiens, UniProt Q9BZL6); settings: 500 nM; relative to DMSO; read-out: Residual enzymatic activity
T31 construct: purchased Reaction Biology Corporation
Procedure, shortened: as §1

[32] = molecular target: T32, c-MER (Homo sapiens, UniProt Q12866); settings: 500 nM; relative to DMSO; read-out: Residual enzymatic activity
T32 construct: purchased Reaction Biology Corporation
Procedure, shortened: as §1

[33] = molecular target: T33, DCAMKL1 (Homo sapiens, UniProt O15075); settings: 500 nM; relative to DMSO; read-out: Residual enzymatic activity
T33 construct: purchased Reaction Biology Corporation
Procedure, shortened: as §1

[34] = molecular target: T34, MSSK1/STK23 (Homo sapiens, UniProt Q9UPE1); settings: 500 nM; relative to DMSO; read-out: Residual enzymatic activity
T34 construct: purchased Reaction Biology Corporation
Procedure, shortened: as §1

[35] = molecular target: T35, NLK (Homo sapiens, UniProt Q9UBE8); settings: 500 nM; relative to DMSO; read-out: Residual enzymatic activity
T35 construct: purchased Reaction Biology Corporation
Procedure, shortened: as §1

[36] = molecular target: T36, RIPK3 (Homo sapiens, UniProt Q9Y572); settings: 500 nM; relative to DMSO; read-out: Residual enzymatic activity
T36 construct: purchased Reaction Biology Corporation
Procedure, shortened: as §1

[37] = molecular target: T37, MEK1 (Homo sapiens, UniProt Q02750); settings: 500 nM, relative to DMSO
T37 construct: purchased Reaction Biology Corporation
Procedure, shortened: as §1

[38] = molecular target: T38, PKCg (Homo sapiens, UniProt P05129); settings: 500 nM; relative to DMSO; read-out: Residual enzymatic activity
T38 construct: purchased Reaction Biology Corporation
Procedure, shortened: as §1

[39] = molecular target: T39, RIPK5 (Homo sapiens, UniProt Q6XUX3); settings: 500 nM; relative to DMSO; read-out: Residual enzymatic activity
T39 construct: purchased Reaction Biology Corporation
Procedure, shortened: as §1

[40] = molecular target: T40, CK1g3 (Homo sapiens, UniProt Q9Y6M4); settings: 500 nM; relative to DMSO; read-out: Residual enzymatic activity
T40 construct: purchased Reaction Biology Corporation
Procedure, shortened: as §1

[41] = read-out: Residual enzymatic activity

T25 sequence (Q5S007 whole entry): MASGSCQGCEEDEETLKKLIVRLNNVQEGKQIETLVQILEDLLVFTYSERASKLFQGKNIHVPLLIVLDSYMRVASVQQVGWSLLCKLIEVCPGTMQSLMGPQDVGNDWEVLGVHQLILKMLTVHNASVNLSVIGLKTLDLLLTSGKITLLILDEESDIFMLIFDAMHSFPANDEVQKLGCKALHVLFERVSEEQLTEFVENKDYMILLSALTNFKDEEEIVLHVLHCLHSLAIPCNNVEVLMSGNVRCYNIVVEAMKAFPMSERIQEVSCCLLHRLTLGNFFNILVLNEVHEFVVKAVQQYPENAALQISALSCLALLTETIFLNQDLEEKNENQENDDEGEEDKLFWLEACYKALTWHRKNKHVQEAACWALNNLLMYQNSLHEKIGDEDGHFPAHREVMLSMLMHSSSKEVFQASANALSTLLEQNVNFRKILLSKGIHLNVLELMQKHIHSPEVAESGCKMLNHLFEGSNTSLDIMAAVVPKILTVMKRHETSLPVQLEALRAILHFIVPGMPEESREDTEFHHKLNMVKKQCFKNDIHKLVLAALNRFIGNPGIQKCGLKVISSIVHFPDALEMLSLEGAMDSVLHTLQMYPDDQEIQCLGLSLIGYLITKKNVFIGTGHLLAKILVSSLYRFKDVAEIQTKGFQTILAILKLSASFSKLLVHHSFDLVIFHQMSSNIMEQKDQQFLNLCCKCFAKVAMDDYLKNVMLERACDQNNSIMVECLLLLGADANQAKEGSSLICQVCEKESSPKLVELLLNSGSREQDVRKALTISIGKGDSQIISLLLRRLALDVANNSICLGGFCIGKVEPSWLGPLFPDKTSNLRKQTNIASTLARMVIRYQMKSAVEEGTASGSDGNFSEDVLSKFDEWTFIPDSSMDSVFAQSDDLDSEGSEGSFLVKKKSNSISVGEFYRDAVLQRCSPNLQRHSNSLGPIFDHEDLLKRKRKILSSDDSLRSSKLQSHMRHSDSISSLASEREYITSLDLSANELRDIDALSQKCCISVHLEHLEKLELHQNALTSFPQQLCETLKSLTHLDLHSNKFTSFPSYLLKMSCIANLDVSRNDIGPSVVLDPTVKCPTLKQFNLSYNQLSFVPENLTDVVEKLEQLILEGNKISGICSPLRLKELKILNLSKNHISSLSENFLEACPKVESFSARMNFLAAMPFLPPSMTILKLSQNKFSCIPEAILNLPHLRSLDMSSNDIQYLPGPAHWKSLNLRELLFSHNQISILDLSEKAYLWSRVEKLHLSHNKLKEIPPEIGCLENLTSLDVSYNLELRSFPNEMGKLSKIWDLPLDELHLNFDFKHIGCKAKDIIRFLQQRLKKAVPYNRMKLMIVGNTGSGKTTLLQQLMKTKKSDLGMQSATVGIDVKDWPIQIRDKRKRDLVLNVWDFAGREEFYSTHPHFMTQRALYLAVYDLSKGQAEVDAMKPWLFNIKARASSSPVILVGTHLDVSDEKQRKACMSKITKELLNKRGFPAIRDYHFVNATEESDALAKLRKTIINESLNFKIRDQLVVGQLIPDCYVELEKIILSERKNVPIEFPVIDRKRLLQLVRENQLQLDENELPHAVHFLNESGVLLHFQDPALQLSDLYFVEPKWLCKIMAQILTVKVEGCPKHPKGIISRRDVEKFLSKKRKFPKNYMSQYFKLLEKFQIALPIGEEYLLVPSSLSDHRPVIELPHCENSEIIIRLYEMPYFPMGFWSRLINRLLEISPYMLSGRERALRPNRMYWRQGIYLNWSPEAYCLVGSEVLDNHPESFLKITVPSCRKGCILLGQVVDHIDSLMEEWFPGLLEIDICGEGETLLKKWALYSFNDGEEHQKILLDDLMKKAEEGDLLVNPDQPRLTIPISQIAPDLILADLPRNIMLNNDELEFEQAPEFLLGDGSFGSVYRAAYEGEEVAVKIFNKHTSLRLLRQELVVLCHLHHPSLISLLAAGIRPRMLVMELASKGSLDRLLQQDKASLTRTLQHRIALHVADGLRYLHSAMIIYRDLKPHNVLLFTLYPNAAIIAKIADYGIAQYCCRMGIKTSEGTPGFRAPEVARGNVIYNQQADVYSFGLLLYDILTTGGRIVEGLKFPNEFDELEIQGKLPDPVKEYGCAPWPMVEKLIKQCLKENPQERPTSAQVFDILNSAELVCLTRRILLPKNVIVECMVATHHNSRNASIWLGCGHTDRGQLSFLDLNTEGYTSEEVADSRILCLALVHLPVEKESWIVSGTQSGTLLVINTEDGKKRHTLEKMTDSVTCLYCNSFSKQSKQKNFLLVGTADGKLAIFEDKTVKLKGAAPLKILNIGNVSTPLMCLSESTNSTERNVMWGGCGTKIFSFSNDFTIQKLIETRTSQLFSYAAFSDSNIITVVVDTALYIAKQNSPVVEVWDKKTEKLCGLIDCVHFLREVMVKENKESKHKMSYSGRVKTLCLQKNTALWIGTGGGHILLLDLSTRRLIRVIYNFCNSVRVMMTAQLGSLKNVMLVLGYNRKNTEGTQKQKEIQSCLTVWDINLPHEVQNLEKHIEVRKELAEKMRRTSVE
T21 sequence (P49137 whole entry): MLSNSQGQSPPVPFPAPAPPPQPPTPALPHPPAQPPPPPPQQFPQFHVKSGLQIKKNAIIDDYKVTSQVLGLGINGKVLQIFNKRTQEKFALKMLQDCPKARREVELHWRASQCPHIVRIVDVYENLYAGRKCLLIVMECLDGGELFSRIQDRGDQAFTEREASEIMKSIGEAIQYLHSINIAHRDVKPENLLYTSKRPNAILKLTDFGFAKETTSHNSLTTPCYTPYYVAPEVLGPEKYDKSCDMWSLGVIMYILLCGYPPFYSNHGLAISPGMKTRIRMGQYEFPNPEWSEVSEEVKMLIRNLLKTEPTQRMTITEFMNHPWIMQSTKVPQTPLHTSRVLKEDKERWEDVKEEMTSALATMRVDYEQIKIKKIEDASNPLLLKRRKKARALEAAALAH
T37 sequence (Q02750 whole entry): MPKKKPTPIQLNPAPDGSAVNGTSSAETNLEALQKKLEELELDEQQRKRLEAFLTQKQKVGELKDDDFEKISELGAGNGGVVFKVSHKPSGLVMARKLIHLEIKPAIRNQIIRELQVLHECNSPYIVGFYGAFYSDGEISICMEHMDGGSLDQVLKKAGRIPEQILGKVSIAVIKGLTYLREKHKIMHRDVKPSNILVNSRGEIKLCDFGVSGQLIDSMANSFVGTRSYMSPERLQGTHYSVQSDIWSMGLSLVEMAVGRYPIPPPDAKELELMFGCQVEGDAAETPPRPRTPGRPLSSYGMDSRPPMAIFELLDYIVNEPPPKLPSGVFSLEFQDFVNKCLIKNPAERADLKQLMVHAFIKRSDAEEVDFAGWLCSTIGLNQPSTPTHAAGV
T32 sequence (Q12866 21-999): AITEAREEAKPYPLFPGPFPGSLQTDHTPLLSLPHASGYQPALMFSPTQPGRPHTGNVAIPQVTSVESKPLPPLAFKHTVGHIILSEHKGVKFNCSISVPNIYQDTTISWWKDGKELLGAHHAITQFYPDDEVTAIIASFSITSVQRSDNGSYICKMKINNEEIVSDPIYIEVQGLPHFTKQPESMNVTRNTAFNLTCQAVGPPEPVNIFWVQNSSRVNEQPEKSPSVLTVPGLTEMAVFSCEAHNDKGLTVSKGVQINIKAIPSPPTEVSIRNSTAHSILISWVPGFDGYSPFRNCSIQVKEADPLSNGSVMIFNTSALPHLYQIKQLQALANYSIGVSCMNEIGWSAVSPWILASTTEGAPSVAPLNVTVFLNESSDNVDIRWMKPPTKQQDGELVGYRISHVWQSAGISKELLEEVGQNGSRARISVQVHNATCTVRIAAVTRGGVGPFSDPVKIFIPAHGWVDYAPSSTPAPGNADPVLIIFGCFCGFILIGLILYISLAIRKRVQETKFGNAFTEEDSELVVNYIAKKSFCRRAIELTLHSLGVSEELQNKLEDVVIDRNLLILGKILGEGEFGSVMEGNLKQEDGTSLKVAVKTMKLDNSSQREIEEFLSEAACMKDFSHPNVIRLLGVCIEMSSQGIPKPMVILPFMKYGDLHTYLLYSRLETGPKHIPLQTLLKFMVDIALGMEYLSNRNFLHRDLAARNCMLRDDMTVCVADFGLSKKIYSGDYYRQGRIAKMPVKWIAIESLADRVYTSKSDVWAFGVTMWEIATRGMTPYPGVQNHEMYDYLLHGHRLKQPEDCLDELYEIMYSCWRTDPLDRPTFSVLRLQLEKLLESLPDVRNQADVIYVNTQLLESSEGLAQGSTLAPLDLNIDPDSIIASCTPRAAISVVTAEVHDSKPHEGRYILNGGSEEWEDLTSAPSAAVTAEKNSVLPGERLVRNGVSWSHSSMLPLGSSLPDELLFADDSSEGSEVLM

COc1cc(Nc2ncnc(Nc3cc4c(cn3)NC(=O)C(C)(C)O4)n2)cc(OC)c1OC [MT-SYK-03]
remaining activity at 0.5 µM [1]: 106%
remaining activity at 0.5 µM [2]: 74.6%
remaining activity at 0.5 µM [3]: 95.1%
remaining activity at 0.5 µM [4]: 102%
remaining activity at 0.5 µM [5]: 101%
remaining activity at 0.5 µM [6]: 90.6%
remaining activity at 0.5 µM [7]: 103%
remaining activity at 0.5 µM [8]: 92.4%
remaining activity at 0.5 µM [9]: 116%
remaining activity at 0.5 µM [10]: 100%
remaining activity at 0.5 µM [11]: 109%
Residual enzymatic activity [12]: did not inhibit any
remaining activity at 0.5 µM [12, 41]: 96.4%
remaining activity at 0.5 µM [13]: 92.3%
remaining activity at 0.5 µM [14]: 100%
remaining activity at 0.5 µM [15]: 90.7%
remaining activity at 0.5 µM [16]: 103%
remaining activity at 0.5 µM [17]: 110%
remaining activity at 0.5 µM [18]: 115%
remaining activity at 0.5 µM [19]: 106%
remaining activity at 0.5 µM [20]: 83.7%
Residual enzymatic activity [21]: did not inhibit any
remaining activity at 0.5 µM [21, 41]: 101%
remaining activity at 0.5 µM [22]: 78.4%
Residual enzymatic activity [23]: 95.7%
remaining activity at 0.5 µM [24]: 129%
remaining activity at 0.5 µM ([25]; 500 nM, relative to DMSO, read-out: Residual enzymatic activity): 48%
IC50 ([25]; 10-dose mode, threefold serial dilution from 10 μM): 206 nM
remaining activity at 0.5 µM [26]: 90.6%
remaining activity at 0.5 µM [27]: 102%
remaining activity at 0.5 µM [28]: 69%
remaining activity at 0.5 µM [29]: 106%
remaining activity at 0.5 µM [30]: 102%
remaining activity at 0.5 µM [31]: 102%
remaining activity at 0.5 µM [32]: 109%
remaining activity at 0.5 µM [33]: 97.6%
remaining activity at 0.5 µM [34]: 106%
remaining activity at 0.5 µM [35]: 94.9%
remaining activity at 0.5 µM [36]: 108%
Residual enzymatic activity [37]: did not inhibit any
remaining activity at 0.5 µM [37, 41]: 107%
remaining activity at 0.5 µM [38]: 103%
remaining activity at 0.5 µM [39]: 104%
remaining activity at 0.5 µM [40]: 72.2%

From publication PMC8632988, “Inhibition of SYK and cSrc kinases can protect bone and cartilage in preclinical models of osteoarthritis and rheumatoid arthritis” (Scientific Reports, 2021)
